From the supplement of paper PMC11451515

Key:
Settings in all cases: 48 h
NOMO1 = assay: AUC of viability dose-response curve (% viability x log10 dose units); higher = less sensitive
In short: (§1)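 Leukemia cells adapted to each medium were seeded at 500 or 1000 cells/well in 1536-well plates and dosed with library compounds in DMSO at 11 threefold doses from 47 μM to 0.79 nM for 48 h at 37°C. CellTiter-Glo One luminescence was normalised per plate to DMSO and cell-free wells, then fitted with a four-parameter log-logistic model over log10 doses. Area under the curve was taken from this fit by the trapezoidal rule, with curves above full viability scaled and curves failing quality control removed.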

P12-Ichikawa = assay: as above
In short: as §1

SEM cells [1] = assay: as above
In short: as §1

SEM cells [2] = assay: cell viability relative to DMSO control; higher = less cytotoxic
In short: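 Library compounds in DMSO were pin-dosed in an 11-point threefold series (47 μM to 0.79 nM) onto leukemia cells in 1536-well plates (5 μl). Plates held 500 cells/well of NOMO1 or SEM or 1000 cells/well of P12-Ichikawa, each adapted for at least four passages in each medium. Luminescence was read with CellTiter-Glo One after 48 h at 37°C. Viability means the per-plate percentage relative to DMSO wells, using cell-free wells as background.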

OCCn1cc(-c2ccc3c(c2)CC/C3=N\O)c(-c2ccncc2)n1
AUC of viability dose-response curve
Settings | NOMO1 | P12-Ichikawa | SEM cells [1]
HPLM + 10% dialyzed FBS | 464 | 444 | 462
RPMI 5 mM glucose + 10% FBS | 468 | 450 | 465
RPMI 5 mM glucose + 10% dialyzed FBS | 472 | 440 | 472

N[C@@H](Cc1c[nH]c2ccc(O)cc12)C(=O)O
SEM cells [2], HPLM + 10% dialyzed FBS
Settings | cell viability [%]
0.000781 µM | 114
0.00234 µM | 110
0.00702 µM | 120
0.0211 µM | 120
0.0632 µM | 94.1
0.19 µM | 121
0.569 µM | 105
1.71 µM | 110
5.12 µM | 102
15.4 µM | 85
46.1 µM | 80.8

AUC of viability dose-response curve
Settings | NOMO1 | P12-Ichikawa | SEM cells [1]
HPLM + 10% dialyzed FBS | 391 | 462 | 454
RPMI 5 mM glucose + 10% FBS | 411 | 444 | 401
RPMI 5 mM glucose + 10% dialyzed FBS | 392 | 458 | 398

Cc1nnc(N[S+](=O)([O-])c2ccc(N)cc2)s1
AUC of viability dose-response curve
Settings | HPLM + 10% dialyzed FBS | RPMI 5 mM glucose + 10% FBS | RPMI 5 mM glucose + 10% dialyzed FBS
P12-Ichikawa | 390 | 394 | 412
SEM cells [1] | 450 | 443 | 449

Nc1nc2ccc(OC(F)(F)F)cc2s1
cell viability [%], SEM cells [2]
Settings | HPLM + 10% dialyzed FBS | RPMI 5 mM glucose + 10% dialyzed FBS
0.000781 µM | 137 | 127
0.00234 µM | 119 | 123
0.00702 µM | 120 | 125
0.0211 µM | 133 | 131
0.0632 µM | 134 | 119
0.19 µM | 127 | 129
0.569 µM | 131 | 147
1.71 µM | 131 | 123
5.12 µM | 130 | 130
15.4 µM | 114 | 118
46.1 µM | 78.3 | 64

AUC of viability dose-response curve
Settings | NOMO1 | P12-Ichikawa | SEM cells [1]
HPLM + 10% dialyzed FBS | 453 | 462 | 462
RPMI 5 mM glucose + 10% FBS | 455 | 461 | 461
RPMI 5 mM glucose + 10% dialyzed FBS | 455 | 466 | 461

CNC(=O)c1cc(Oc2ccc(NC(=O)Nc3ccc(Cl)c(C(F)(F)F)c3)cc2)ccn1
cell viability [%], SEM cells [2]
Settings | RPMI 5 mM glucose + 10% FBS | RPMI 5 mM glucose + 10% dialyzed FBS
0.000781 µM | 108 | 109
0.00234 µM | 112 | 108
0.00702 µM | 89.1 | 98.8
0.0211 µM | 89.8 | 79.3
0.0632 µM | 70.8 | 64.7
0.19 µM | 57.1 | 57.8
0.569 µM | 54 | 59.7
1.71 µM | 75.3 | 63.8
5.12 µM | 63.9 | 72.1
15.4 µM | 63 | 68.9
46.1 µM | 5.7 | 11.6

AUC of viability dose-response curve
Settings | NOMO1 | P12-Ichikawa | SEM cells [1]
HPLM + 10% dialyzed FBS | 445 | 457 | 278
RPMI 5 mM glucose + 10% FBS | 448 | 448 | 313
RPMI 5 mM glucose + 10% dialyzed FBS | 432 | 448 | 317
